# Laboratory results reported in ChEMBL document CHEMBL1144741, “Review of cytotoxic cephalostatins and ritterazines: isolation and synthesis” (2008).
# System: P388
# Experiment: Antitumor activity against mouse P388 cells
# Type: functional
# Conditions: read-out: ED50 (the source's name)
row,Structure (SMILES),EC50 [µM]
1,C[C@@H]1[C@H]2CC=C3[C@H]4CC[C@H]5Cc6nc7c(nc6C[C@]5(C)[C@@]4(O)CC(=O)[C@@]32CO[C@]12OC(C)(C)C[C@H]2O)C[C@@H]1CC[C@H]2C3=C[C@@H]4O[C@]5(O[C@](C)(CO)C[C@H]5O)[C@@H](C)[C@]4(O)[C@@]3(C)[C@H](O)C[C@@H]2[C@@]1(C)C7 [CEPHALOSTATIN 17],0.0044
2,CO[C@H]1c2nc3c(nc2C[C@@H]2CC[C@H]4C5=C[C@@H]6O[C@]7(O[C@](C)(CO)C[C@H]7O)[C@@H](C)[C@]6(O)[C@@]5(C)[C@H](O)C[C@@H]4[C@]21C)C[C@@]1(C)[C@@H](CC[C@H]2C4=CC[C@@H]5[C@H](C)[C@@]6(OC[C@]45C(=O)C[C@@H]21)OC(C)(C)C[C@H]6O)C3 [CEPHALOSTATIN 18],0.0046
3,CO[C@H]1c2nc3c(nc2C[C@@H]2CC[C@H]4C5=CC[C@@H]6[C@H](C)[C@@]7(OC[C@]56C(=O)C[C@@H]4[C@]21C)OC(C)(C)C[C@H]7O)C[C@@]1(C)[C@@H](CC[C@H]2C4=C[C@@H]5O[C@]6(O[C@](C)(CO)C[C@H]6O)[C@@H](C)[C@]5(O)[C@@]4(C)[C@H](O)C[C@@H]21)C3 [CEPHALOSTATIN 19],0.0079
4,C[C@@H]1[C@@]2(CC[C@](C)(O)CO2)O[C@H]2C=C3[C@@H]4[C@@H](O)C[C@H]5Cc6nc7c(nc6C[C@]5(C)[C@H]4C[C@@H](O)[C@]3(C)[C@]21O)C[C@@H]1CC[C@@H]2[C@H](CC(=O)[C@]23C[C@@H]2O[C@@]4(CCC(C)(C)O4)[C@@H](C)[C@@H]2[C@]3(C)O)[C@@]1(C)C7 [RITTERAZINE A],0.0142
5,C[C@@H]1[C@@]2(CC[C@](C)(O)CO2)O[C@H]2C=C3[C@@H]4[C@@H](O)C[C@H]5Cc6nc7c(nc6C[C@]5(C)[C@H]4C[C@@H](O)[C@]3(C)[C@]21O)C[C@@H]1CC[C@H]2[C@H]3C[C@@H]4O[C@@]5(CCC(C)(C)O5)C[C@@H]4[C@@]3(C)[C@H](O)C[C@@H]2[C@@]1(C)C7 [RITTERAZINE B],0.00017
6,C[C@@H]1[C@@]2(CC[C@@](C)(CO)O2)O[C@H]2C=C3[C@@H]4[C@@H](O)C[C@H]5Cc6nc7c(nc6C[C@]5(C)[C@H]4C[C@@H](O)[C@]3(C)[C@]21O)C[C@@H]1CC[C@H]2[C@H]3C[C@@H]4O[C@]5(CCC(C)(C)O5)[C@@H](C)[C@@H]4[C@@]3(C)[C@H](O)C[C@@H]2[C@@]1(C)C7 [RITTERAZINE C],0.102
7,C[C@@H]1[C@@]2(CC[C@](C)(O)CO2)O[C@H]2C=C3[C@@H]4[C@@H](O)C[C@H]5Cc6nc7c(nc6C[C@]5(C)[C@H]4C[C@@H](O)[C@]3(C)[C@]21O)C[C@@H]1CC[C@@H]2[C@H](CC(=O)[C@]23C[C@@H]2O[C@]4(CCC(C)(C)O4)[C@@H](C)[C@@H]2[C@]3(C)O)[C@@]1(C)C7 [RITTERAZINE D],0.0175
8,C[C@@H]1[C@@]2(CC[C@](C)(O)CO2)O[C@H]2C=C3[C@@H]4[C@@H](O)C[C@H]5Cc6nc7c(nc6C[C@]5(C)[C@H]4C[C@@H](O)[C@]3(C)[C@]21O)C[C@@H]1CC[C@@H]2[C@H](CC(=O)[C@]23C[C@@H]2O[C@]4(C[C@H](C)C(C)(C)O4)[C@@H](C)[C@@H]2[C@]3(C)O)[C@@]1(C)C7 [RITTERAZINE E],0.0038
9,C[C@@H]1[C@@]2(CC[C@](C)(O)CO2)O[C@H]2C=C3[C@@H]4[C@@H](O)C[C@H]5Cc6nc7c(nc6C[C@]5(C)[C@H]4C[C@@H](O)[C@]3(C)[C@]21O)C[C@@H]1CC[C@H]2[C@H]3C[C@@H]4O[C@]5(CCC(C)(C)O5)C[C@@H]4[C@@]3(C)[C@H](O)C[C@@H]2[C@@]1(C)C7 [RITTERAZINE F],0.00081
10,C[C@@H]1[C@@]2(CC[C@](C)(O)CO2)O[C@H]2C=C3[C@@H]4[C@@H](O)C[C@H]5Cc6nc7c(nc6C[C@]5(C)[C@H]4C[C@@H](O)[C@]3(C)[C@]21O)C[C@@H]1CC[C@H]2C3=C[C@@H]4O[C@]5(CCC(C)(C)O5)C[C@@H]4[C@@]3(C)[C@H](O)C[C@@H]2[C@@]1(C)C7 [RITTERAZINE G],0.00081
11,C[C@@H]1[C@@]2(CC[C@](C)(O)CO2)O[C@H]2C=C3[C@@H]4[C@@H](O)C[C@H]5Cc6nc7c(nc6C[C@]5(C)[C@H]4C[C@@H](O)[C@]3(C)[C@]21O)C[C@@H]1CC[C@H]2[C@H]3C[C@@H]4O[C@@]5(CCC(C)(C)O5)C[C@@H]4[C@@]3(C)C(=O)C[C@@H]2[C@@]1(C)C7 [RITTERAZINE H],0.0178
12,C[C@@H]1[C@@]2(CC[C@](C)(O)CO2)O[C@H]2C=C3[C@@H]4[C@@H](O)C[C@H]5Cc6nc7c(nc6C[C@]5(C)[C@H]4C[C@@H](O)[C@]3(C)[C@]21O)C[C@@H]1CC[C@@H]2[C@H](CC(=O)[C@]3(C)[C@H]4C[C@@]5(CCC(C)(C)O5)O[C@H]4C[C@]23O)[C@@]1(C)C7 [RITTERAZINE I],0.0153
13,C[C@@H]1[C@@]2(CC[C@](C)(O)CO2)O[C@H]2C=C3[C@@H]4[C@@H](O)C[C@H]5Cc6nc7c(nc6C[C@]5(C)[C@H]4C[C@@H](O)[C@]3(C)[C@]21O)C[C@@H]1CC[C@H]2C3=C[C@@H]4O[C@]5(CC[C@@](C)(O)CO5)[C@@H](C)[C@]4(O)[C@@]3(C)[C@H](O)C[C@@H]2[C@@]1(C)C7 [RITTERAZINE J],0.014
14,C[C@@H]1[C@@]2(CC[C@](C)(O)CO2)O[C@H]2C=C3[C@H]4CC[C@H]5Cc6nc7c(nc6C[C@]5(C)[C@H]4C[C@@H](O)[C@]3(C)[C@]21O)C[C@@H]1CC[C@H]2C3=C[C@@H]4O[C@]5(CC[C@@](C)(O)CO5)[C@@H](C)[C@]4(O)[C@@]3(C)[C@H](O)C[C@@H]2[C@@]1(C)C7 [RITTERAZINE K],0.0104
15,C[C@@H]1[C@@]2(CC[C@](C)(O)CO2)O[C@H]2C=C3[C@@H]4CC[C@H]5Cc6nc7c(nc6C[C@]5(C)[C@H]4C[C@@H](O)[C@]3(C)[C@]21O)C[C@@H]1CC[C@H]2C3=C[C@@H]4O[C@]5(CC[C@@](C)(O)CO5)[C@@H](C)[C@@H]4[C@@]3(C)[C@H](O)C[C@@H]2[C@@]1(C)C7 [RITTERAZINE L],0.0111
16,C[C@@H]1[C@@]2(CC[C@](C)(O)CO2)O[C@H]2C=C3[C@@H]4CC[C@H]5Cc6nc7c(nc6C[C@]5(C)[C@H]4C[C@@H](O)[C@]3(C)[C@]21O)C[C@@H]1CC[C@H]2C3=C[C@@H]4O[C@@]5(CC[C@](C)(O)CO5)[C@@H](C)[C@@H]4[C@@]3(C)[C@H](O)C[C@@H]2[C@@]1(C)C7 [RITTERAZINE M],0.0167
17,C[C@H]1[C@H]2[C@H](C[C@]3(C(=O)C[C@@H]4[C@H]3CC[C@H]3Cc5nc6c(nc5C[C@@]34C)C[C@@H]3CC[C@@H]4[C@H](CC(=O)[C@]45C[C@@H]4O[C@@]7(CCC(C)(C)O7)[C@@H](C)[C@@H]4[C@]5(C)O)[C@@]3(C)C6)[C@@]2(C)O)O[C@@]12CCC(C)(C)O2 [RITTERAZINE N],0.522
18,C[C@H]1[C@H]2[C@H](C[C@]3(C(=O)C[C@@H]4[C@H]3CC[C@H]3Cc5nc6c(nc5C[C@@]34C)C[C@@H]3CC[C@@H]4[C@H](CC(=O)[C@]45C[C@@H]4O[C@@]7(CCC(C)(C)O7)[C@@H](C)[C@@H]4[C@]5(C)O)[C@@]3(C)C6)[C@@]2(C)O)O[C@]12CCC(C)(C)O2 [RITTERAZINE O],2.38
19,C[C@H]1[C@H]2[C@H](C[C@@H]3[C@@H]4CC[C@H]5Cc6nc7c(nc6C[C@]5(C)[C@H]4C[C@@H](O)[C@]23C)C[C@@H]2CC[C@@H]3[C@@H](CC(=O)[C@]34C[C@@H]3O[C@@]5(CCC(C)(C)O5)[C@@H](C)[C@@H]3[C@]4(C)O)[C@@]2(C)C7)O[C@@]12CCC(C)(C)O2 [RITTERAZINE P],0.819
20,C[C@H]1[C@H]2[C@H](C[C@@H]3[C@@H]4CC[C@H]5Cc6nc7c(nc6C[C@]5(C)[C@H]4C[C@@H](O)[C@]23C)C[C@@H]2CC[C@@H]3[C@@H](CC(=O)[C@]34C[C@@H]3O[C@]5(CCC(C)(C)O5)[C@@H](C)[C@@H]3[C@]4(C)O)[C@@]2(C)C7)O[C@@]12CCC(C)(C)O2 [RITTERAZINE Q],0.657
21,C[C@H]1[C@H]2[C@H](C[C@@H]3[C@@H]4CC[C@H]5Cc6nc7c(nc6C[C@]5(C)[C@@H]4C[C@@H](O)[C@]23C)C[C@@H]2CC[C@H]3[C@H]4C[C@@H]5O[C@@]6(CCC(C)(C)O6)[C@@H](C)[C@@H]5[C@@]4(C)[C@H](O)C[C@@H]3[C@@]2(C)C7)O[C@@]12CCC(C)(C)O2 [RITTERAZINE R],2.46
22,C[C@H]1[C@H]2[C@H](C[C@@H]3[C@@H]4CC[C@H]5Cc6nc7c(nc6C[C@]5(C)[C@@H]4C[C@@H](O)[C@]23C)C[C@@H]2CC[C@H]3[C@H]4C[C@@H]5O[C@@]6(CCC(C)(C)O6)[C@@H](C)[C@@H]5[C@@]4(C)[C@H](O)C[C@@H]3[C@@]2(C)C7)O[C@]12CCC(C)(C)O2 [RITTERAZINE S],0.539
23,C[C@H]1[C@H]2[C@H](C=C3[C@@H]4CC[C@H]5Cc6nc7c(nc6C[C@]5(C)[C@@H]4C[C@@H](O)[C@@]32C)C[C@@H]2CC[C@@H]3[C@H](CC(=O)[C@]34C[C@@H]3O[C@@]5(CCC(C)(C)O5)[C@@H](C)[C@@H]3[C@]4(C)O)[C@@]2(C)C7)O[C@]12CC[C@](C)(O)CO2 [RITTERAZINE T],0.522
24,C[C@H]1[C@H]2[C@H](C[C@]3(C(=O)C[C@H]4[C@H]3CC[C@H]3Cc5nc6c(nc5C[C@@]34C)C[C@@H]3CC[C@@H]4[C@@H](CC(=O)[C@]5(C)[C@@H]7[C@H](C[C@]45O)O[C@]4(CC[C@](C)(O)CO4)[C@H]7C)[C@@]3(C)C6)[C@@]2(C)O)O[C@@]12CCC(C)(C)O2 [RITTERAZINE U],2.34
